The values below come from article PMC5234788 (PLoS ONE, 2017).

One experiment relates to T1, GABA-B.
T1 construct: Caliper Lifescience
The experiment in a line: Radio-ligand binding assay, GABA-B. As to conditions: 10 μM l-THBr; radioligand [3H]CGP 54626A. On the procedure:
(§1) To determine the possible targets of l-THBr action, the binding affinities of l-THBr to neurotransmitter receptors known to be involved in sedation, hypnosis and anxiety were investigated. Radio-ligand binding assays were performed by Caliper Lifescience (Hopkinton, MA, USA). The screening was carried out at a concentration of 10 μM l–THBr to test its ability to inhibit the binding of radioligands to their corresponding receptors. The results were expressed as percentage of inhibition of labeled ligand binding to individual receptors. Significant binding activity was defined as ≥50%.

Experiment [1] deals with Glutamate, AMPA Site (Ionotropic). The experiment is described as follows: Radio-ligand binding assay, Glutamate AMPA site. As to conditions: 10 μM l-THBr; radioligand [3H]AMPA. On the procedure: as §1
The subject of a further experiment is T2, Dopamine, D2s (h).
T2 construct: Caliper Lifescience
The experiment is described as follows: Radio-ligand binding assay, Dopamine D2s. Details: species or system human. As to conditions: 10 μM l-THBr. On the procedure: as §1

A further experiment deals with male CD-1 ICR mice. The experiment in a line: Elevated plus-maze test. The class given is in vivo. From the text:
The elevated plus-maze test is widely used for the screening and evaluation of anxiolytic drugs. The apparatus consists of two open arms (30 cm × 5 cm) and two enclosed arms (30 cm × 5 cm × 15 cm), which is elevated 45 cm above the ground. The entire maze was made of clear Plexiglas and illuminated by four 30 W white lights with 300 lx light intensity arranged as a cross 100 cm above the maze. 48 male CD-1 ICR mice were randomly divided into either the vehicle group, one of three doses of l–THBr groups, or the diazepam group. 30 min after injection, mice were gently placed on the center platform facing an open arm, and the number of entries and the time spent in both arms were recorded by a video camera for 5 min. The results were expressed as the percentage of entries into the open arms (%) = (the number of entries into the open arms / the total number of entries into the four arms) × 100%; and the percentage of time spent in the open arms (%) = (time spent in the open arms / total time spent in the four arms) × 100%.
In a separate experiment, WAY100635 (a 5-HT1A antagonist) was used to test whether the anxiolytic-like activity of l-THBr is mediated by the activation of the 5-HT1A receptor. Forty male CD-1 ICR mice were randomly divided into one of four groups: vehicle, WAY100635 (3 mg/kg, i.p.), l–THBr (5 mg/kg, i.p.) or WAY100635 (3 mg/kg, i.p.) + l–THBr (5 mg/kg, i.p.). Mice were administered vehicle or WAY100635 followed by vehicle or l–THBr (5 mg/kg) injections 15 min later. The test was performed 30 min after the administration of l-THBr or vehicle.

The test system of a further experiment is T3, Dopamine Transporter.
T3 construct: Caliper Lifescience
The experiment in a line: Radio-ligand binding assay, Dopamine Transporter. As to conditions: 10 μM l-THBr; radioligand [3H]WIN 35,428. How it is done: as §1

The next experiment has as its system T4, Serotonin, 5HT2C.
T4 construct: Caliper Lifescience
The experiment in a line: Radio-ligand binding assay, Serotonin 5HT2C. As to conditions: 10 μM l-THBr; radioligand [3H]Mesulergine. On the procedure:
as §1

In experiment [2] the test system is Glutamate, NMDA Agonist Site (Ionotropic). The experiment is described as follows: Radio-ligand binding assay, Glutamate NMDA agonist site. As to conditions: 10 μM l-THBr; radioligand [3H]CGP 39653. How it is done: as §1
The test system of a further experiment is T5, Serotonin Transporter.
T5 construct: Caliper Lifescience
The experiment in a line: Radio-ligand binding assay, Serotonin Transporter. Particulars: 10 μM l-THBr; radioligand [3H]Citalopram,N-Methyl. How it is done: as §1

The test system of experiment [3] is Glutamate, MK-801 (Ionotropic). The experiment is described as follows: Radio-ligand binding assay, Glutamate MK-801. As to conditions: 10 μM l-THBr; radioligand [3H] MK-801. On the procedure:
as §1

For experiment [4], the system named is Glycline, Strychnine-sensitive. The experiment in a line: Radio-ligand binding assay, Glycine strychnine-sensitive. As to conditions: 10 μM l-THBr; radioligand [3H]Strchnine. How it is done: as §1
A further experiment relates to T6, Serotonin, 5HT4.
T6 construct: Caliper Lifescience
The experiment in a line: Radio-ligand binding assay, Serotonin 5HT4. Particulars: 10 μM l-THBr; radioligand [3H] 113808. How it is done: as §1

Another experiment deals with T7, Dopamine, D3.
T7 construct: Caliper Lifescience
The experiment is described as follows: Radio-ligand binding assay, Dopamine D3. As to conditions: 10 μM l-THBr. On the procedure:
as §1

The subject of a further experiment is T8, Serotonin, 5HT6 (h).
T8 construct: Caliper Lifescience
The experiment is described as follows: Radio-ligand binding assay, Serotonin 5HT6. Details: species or system human. Particulars: 10 μM l-THBr; radioligand [3H]-LSD. How it is done: as §1

The test system of another experiment is T9, Serotonin, 5HT7 (h).
T9 construct: Caliper Lifescience
The experiment is described as follows: Radio-ligand binding assay, Serotonin 5HT7. Details: species or system human. As to conditions: 10 μM l-THBr. How it is done: as §1

For another experiment, the system named is T10, Serotonin, 5HT2A.
T10 construct: Caliper Lifescience
The experiment in a line: Radio-ligand binding assay, Serotonin 5HT2A. As to conditions: 10 μM l-THBr; radioligand [3H]Ketanserin. How it is done:
as §1

A further experiment has as its system T11, Dopamine, D4.4 (h).
T11 construct: Caliper Lifescience
The experiment in a line: Radio-ligand binding assay, Dopamine D4.4. Details: species or system human. Particulars: 10 μM l-THBr. On the procedure: as §1

For experiment [5], the system named is Glutamate, NMDA, Phencyclidine Site (Ionotropic). The experiment is described as follows: Radio-ligand binding assay, Glutamate NMDA phencyclidine site. As to conditions: 10 μM l-THBr; radioligand [3H]TCP. On the procedure: as §1
Another experiment deals with T12, Serotonin, 5HT1D.
T12 construct: Caliper Lifescience
The experiment in a line: Radio-ligand binding assay, Serotonin 5HT1D. Particulars: 10 μM l-THBr; radioligand [3H]5-CT. On the procedure:
as §1

The mark [6] stands for this setting: l-THBr 1 or 5 mg/kg, i.p., P < 0.05 vs control.

Values joined by “and” are separate entries in the source; they are usually repeats but may differ in a detail not shown here. Equal values may be shown once.

Consider `COc1ccc2c(c1O)CN1CCc3cc4c(cc3[C@@H]1C2)OCO4` [l-THBr, levo-tetrahydroberberrubine], for which the Average inhibition percentage is -6.94% in the experiment on GABA-B; 0.31% in [1]; 98.41% and 96.43% with Dopamine, D2s (h) (radioligand [3H]-Raclopride); 8.8% in the experiment on Dopamine Transporter; 30.65% with Serotonin, 5HT2C; 4.79% in experiment [2]. Besides, the Average inhibition percentage in the experiment with Serotonin Transporter is given as 34.43%; in [3], 6.41%; in experiment [4] it was 21.26%; in the experiment with Serotonin, 5HT4, 32.84%; with Dopamine, D3 (radioligand [3H]7-OH-DAPT), 77.61%; in the experiment with Serotonin, 5HT6 (h), 22.79%. For the same compound, the Average inhibition percentage is listed as 54.82% in the experiment on Serotonin, 5HT7 (h) (radioligand [3H]LSD); 40.90% in the experiment on Serotonin, 5HT2A; 79.55% in the experiment with Dopamine, D4.4 (h) (radioligand [3H]-YM-09151-2); -12.74% in experiment [5]; 42.28% with Serotonin, 5HT1D. For the same compound, the Activity result was “Yes (Significant binding affinity of l-THBr was defined as greater than 50% inhibition of ligand binding)” with Dopamine, D2s (h); “Yes (Significant binding affinity of l-THBr was defined as greater than 50% inhibition of ligand binding)” in the experiment with Dopamine, D3; “Yes (Significant binding affinity of l-THBr was defined as greater than 50% inhibition of ligand binding)” in the experiment with Serotonin, 5HT7 (h); “Yes (Significant binding affinity of l-THBr was defined as greater than 50% inhibition of ligand binding)” in the experiment with Dopamine, D4.4 (h). For the same compound, in the experiment with male CD-1 ICR mice (l-THBr 5 mg/kg i.p. + WAY100635 3 mg/kg i.p. given 15 min earlier), the “anxiolytic-like effects (open arm entries and time) on co-administration of 5-HT1A antagonist WAY100635” value is “significantly reversed”. In the experiment on male CD-1 ICR mice (setting [6]), the “ratio of entries into the open arms” value was “increased”. Moreover, in the experiment on male CD-1 ICR mice (setting [6]), the “ratio of time spent in the open arms” value is reported as “increased”.
